This is an account of results in patent US9278940B2, “Cyclic amines as bromodomain inhibitors” (Zenith Epigenetics Corp., priority 2012, dated 2016).

For experiment [1], the system named is c-myc. Description: Inhibition of c-myc expression (mRNA, real-time PCR) in MV4-11 cells. The experiment is classed as cell-based. Also on record: key: Active: Compounds with an IC50 value less than 30 μM were deemed to be active.; Not Active: Compounds with an IC50 value less than 30 μM were deemed to be active. The following applies: Human AML MV4-11 cells, 3 hours. The method, then: MV4-11 cells (2.5×10^4 cells) were plated in 96 well U-bottom plates with test compound or DMSO (0.1%), and incubated for 3 hours at 37° C. Cells were then harvested by centrifugation, lysed, and mRNA was isolated using the mRNA catcher plus kit (Invitrogen). Reverse transcription of the mRNA and duplex amplification of the c-myc and cyclophilin cDNAs was performed using the RNA Ultrasense kit (Invitrogen) and a ViiA7 real-time PCR machine (Applied Biosystems). IC50 values were determined from a dose response curve.
Background: Real-time PCR tracks product formation cycle by cycle.

Experiment [2] deals with hIL-6 mRNA. Nature of the experiment: Inhibition of hIL-6 mRNA transcription in LPS-stimulated U937 macrophages. Also on record: key: Active: Compounds with an IC50 value less than 30 μM are deemed to be active.; Not Active: Compounds with an IC50 value less than 30 μM are deemed to be active. The following applies: U937 cells differentiated with PMA, 1 h pretreatment, LPS 3 h. The experiment is classed as cell-based, human. How it is done:
In this example, hIL-6 mRNA in tissue culture cells was quantitated to measure the transcriptional inhibition of hIL-6 when treated with a compound of the present disclosure.
A human leukemic monocyte lymphoma cell line (U937) was plated (3.2×10^4 cells per well) in a 96-well plate in […] RPMI-1640 containing 10% FBS and penicillin/streptomycin, and differentiated into macrophages for 3 days in 60 ng/mL PMA ([…]) at 37° C. in 5% CO2 prior to the addition of the compound of interest. The cells were pretreated for 1 h with the test compound prior to stimulation with 1 ug/mL lipopolysaccharide from Escherichia coli. The cells were incubated at 37-C for 3 h before the cells were harvested. At time of harvest, the spent media was removed from the cells and the cells were rinsed in 200 μL PBS. Cell lysis solution (70 μL) was added the cells in each well and incubated for 5-10 min at room temperature, to allow for complete cell lysis and detachment. mRNA was then prepared using the “mRNA Catcher PLUS plate” (Invitrogen), according to the protocol supplied. After the last wash, as much wash buffer as possible was aspirated without allowing the wells to dry. Elution buffer (E3, 70 μL) was then added to each well. mRNA was then eluted by incubating the mRNA Catcher PLUS plate with Elution Buffer for 5 min at 68° C. and then immediately placing the plate on ice.
The eluted mRNA isolated was then used in a one-step quantitative real-time PCR reaction, using components of the Ultra Sense Kit together with Applied Biosystems primer-probe mixes. Real-time PCR data was analyzed, normalizing the Ct values for hIL-6 to an internal control, prior to determining the fold induction of each unknown sample, relative to the control.

The subject of experiment [3] is Human AML MV-4-11 cells. Nature of the experiment: Inhibition of cell proliferation in MV4-11 cells. In kind it is cell-based. Also on record: key: Active: Compounds with an IC50 value less than 30 μM are deemed to be active.; Not Active: Compounds with an IC50 value less than 30 μM are deemed to be active. The following applies: 72 hours. The method, then:
MV4-11 cells: 96-well plates were seeded with 5×10^4 cells per well of exponentially growing human AML MV-4-11 (CRL-9591) cells and immediately treated with two-fold dilutions of test compounds, ranging from 30 μM to 0.2 μM. Triplicate wells were used for each concentration, as well as a media only and three DMSO control wells. The cells and compounds were incubated at 37° C., 5% CO2 for 72 hours before adding 20 μL of the CellTiter Aqueous One Solution (Promega) to each well and incubating at 37° C., 5% CO2 for an additional 3-4 hours. The absorbance was taken at 490 nm in a spectrophotometer and the percentage of proliferation relative to DMSO-treated cells was calculated after correction from the blank well. IC50 were calculated using the GraphPad Prism software.

Experiment [4] has as its target T1, Brd4 bromodomain 1 (Homo sapiens, UniProt O60885).
T1 construct: made in house; host or cells: E. coli BL21(DE3)
Description: Inhibition of tetra-acetylated histone H4 binding to BET bromodomain (TR-FRET). Also on record: key: Active: Compounds with an IC50 value less than 30 μM were deemed to be active.; Not Active: Compounds with an IC50 value less than 30 μM were deemed to be active. To be noted: Brd4 bromodomain 1, tetra-acetylated histone H4 peptide. How it is done:
Proteins were cloned and overexpressed with a N-terminal 6×His tag, then purified by nickel affinity followed by size exclusion chromatography. Briefly, E. coli BL21(DE3) cells were transformed with a recombinant expression vector encoding N-terminally Nickel affinity tagged bromodomains from Brd2, Brd3, Brd4. Cell cultures were incubated at 37° C. with shaking to the appropriate density and induced overnight with IPTG. The supernatant of lysed cells was loaded onto Ni-IDA column for purification. Eluted protein is pooled, concentrated and further purified by size exclusion chromatography. Fractions representing monomeric protein were pooled, concentrated, aliquoted, and frozen at −80° C. for use in subsequent experiments.
Binding of tetra-acetylated histone H4 and BET bromodomains was confirmed by a Time Resolved Fluorescence Resonance Energy Transfer (TR-FRET) method. N-terminally His-tagged bromodomains (200 nM) and biotinylated tetra-acetylated histone H4 peptide (25-50 nM, Millipore) were incubated in the presence of Europium Cryptate-labeled streptavidin (Cisbio Cat. #610SAKLB) and XL665-labeled monoclonal anti-His antibody (Cisbio Cat. #61HISXLB) in a white 96 well microtiter plate (Greiner). For inhibition assays, serially diluted test compound was added to these reactions in a 0.2% final concentration of DMSO. Final buffer concentrations were 30 mM HEPES pH 7.4, 30 mM NaCl, 0.3 mM CHAPS, 20 mM phosphate pH 7.0, 320 mM KF, 0.08% BSA). After 2 hours incubation at room temperature, the fluorescence by FRET was measured at 665 and 620 nm by a SynergyH4 plate reader (Biotek). The binding inhibitory activity was shown by a decrease in 665 nm fluorescence relative to 620 nm. IC50 values were determined from a dose response curve.
For orientation: In TR-FRET formats the signal depends on donor and acceptor labels being close together.

The test system of experiment [5] is hApoA-1 mRNA. Description: Up-regulation of hApoA-1 mRNA transcription in Huh7 cells. In kind it is cell-based, human. Also on record: key: Active: Compounds with an EC170 value less than 30 μM are deemed to be active.; Not Active: Compounds with an EC170 value less than 30 μM are deemed to be active. To be noted: 48 hrs treatment, ApoA-I mRNA. How it is done:
In this example, ApoA-I mRNA in tissue culture cells was quantitated to measure the transcriptional up-regulation of ApoA-I when treated with a compound of the present disclosure.
Huh7 cells ([…] per well) were plated in a 96-well plate using 100 μL DMEM per well, (Gibco DMEM supplemented with penicillin/streptomycin and 10% FBS), 24 h before the addition of the compound of interest. After 48 hrs treatment, the spent media was removed from the Huh-7 cells and placed on ice (for immediate use) or at −80° C. (for future use) with the “LDH cytotoxicity assay Kit II” from Abcam. The cells remaining in the plate were rinsed with 100 μL PBS.
Then 85 μL of cell lysis solution was added to each well and incubated for 5-10 minutes at room temperature, to allow for complete cell lysis and detachment. mRNA was then prepared using the “mRNA Catcher PLUS plate” from Life Technologies, according to the protocol supplied. After the last wash, as much wash buffer as possible was aspirated without allowing the wells to dry. Elution Buffer (E3, 80 μL) was then added to each well. mRNA was then eluted by incubating the mRNA Catcher PLUS plate with Elution Buffer for 5 minutes at 68° C., and then 1 minute at 4° C. Catcher plates with mRNA eluted were kept on ice for use or stored at −80° C.
The eluted mRNA isolated was then used in a one-step real-time PCR reaction, using components of the Ultra Sense Kit together with Life Technologies primer-probe mixes. Real-time PCR data was analyzed, using the Ct values, to determine the fold induction of each unknown sample, relative to the control (that is, relative to the control for each independent DMSO concentration).
Compounds with an EC170 value less than 30 μM are deemed to be active.

Where a name gives a salt, the structure may show the parent alone.

As for `COc1cc(OC)c2c(=O)[nH]c(-c3cccc(N4CCOCC4)n3)nc2c1` [Example 16, 5,7-Dimethoxy-2-(6-morpholinopyridin-2-yl)quinazolin-4(3H)-one Hydrochloride], the “c-myc activity (IC50 < 30 μM)” value in experiment [1] is reported as “Not Active”. Moreover, the “IL-6 activity (IC50 < 30 μM)” value in experiment [2] was “Active”. The “cell proliferation activity (IC50 < 30 μM)” value (“cell proliferation activity” below) in experiment [3] is “Not Active”. In addition, the “FRET activity (IC50 < 30 μM)” value in experiment [4] was “Active”.

`COc1cc(OC)c2c(=O)[nH]c(-c3cccc(N4CCN(S(C)(=O)=O)CC4)n3)nc2c1` [Example 18, 5,7-Dimethoxy-2-(6-(4-(methylsulfonyl)piperazin-1-yl)pyridin-2-yl)quinazolin-4(3H)-one Hydrochloride]: the “IL-6 activity (IC50 < 30 μM)” value in experiment [2] is “Not Active”. For the same compound, the “FRET activity (IC50 < 30 μM)” value in experiment [4] is “Not Active”.

As for `COc1cc(OC)c2c(=O)[nH]c(-c3cc(OC(F)(F)F)cc(N4CCN(C(C)C)CC4)c3)nc2c1` [Example 20, 2-(3-(4-Isopropylpiperazin-1-yl)-5-(trifluoromethoxy)phenyl)-5,7-dimethoxyquinazolin-4(3H)-one], the “c-myc activity (IC50 < 30 μM)” value in experiment [1] is listed as “Not Active”. Besides, in experiment [2], the “IL-6 activity (IC50 < 30 μM)” value is reported as “Active”. Also, in experiment [3], the “cell proliferation activity” value is “Not Active”. For the same compound, in experiment [4], the “FRET activity (IC50 < 30 μM)” value is recorded as “Active”.

For `COc1cc(F)cc2nc(-c3cccc(N4CCN(C(C)C)CC4)n3)[nH]c(=O)c12` [Example 21, 7-Fluoro-2-(6-(4-isopropylpiperazin-1-yl)pyridin-2-yl)-5-methoxyquinazolin-4(3H)-one Hydrochloride], the “c-myc activity (IC50 < 30 μM)” value in experiment [1] was “Active”. In addition, the “IL-6 activity (IC50 < 30 μM)” value in experiment [2] was “Active”. Further, the “cell proliferation activity” value in experiment [3] is “Active”. The “FRET activity (IC50 < 30 μM)” value in experiment [4] is “Active”.

Consider `COc1cc(OCc2ccccc2)cc2nc(-c3cccc(N4CCN(C(C)C)CC4)n3)[nH]c(=O)c12` [Example 22, 7-(Benzyloxy)-2-(6-(4-isopropylpiperazin-1-yl)pyridin-2-yl)-5-methoxyquinazolin-4(3H)-one Hydrochloride], for which the “c-myc activity (IC50 < 30 μM)” value in experiment [1] is on record as “Active”. In experiment [2], the “IL-6 activity (IC50 < 30 μM)” value was “Active”. The “cell proliferation activity” value in experiment [3] is listed as “Active”. For the same compound, the “FRET activity (IC50 < 30 μM)” value in experiment [4] is recorded as “Active”.

Regarding `COc1cc(N2CCN(C(C)C)CC2)cc2nc(-c3cccc(N4CCN(C(C)C)CC4)n3)[nH]c(=O)c12` [Example 23, 7-(4-Isopropylpiperazin-1-yl)-2-(6-(4-isopropylpiperazin-1-yl)pyridin-2-yl)-5-methoxyquinazolin-4(3H)-one Hydrochloride], the “c-myc activity (IC50 < 30 μM)” value in experiment [1] was “Active”. In experiment [2], the “IL-6 activity (IC50 < 30 μM)” value is reported as “Not Active”. Moreover, the “cell proliferation activity” value in experiment [3] was “Active”. Moreover, the “FRET activity (IC50 < 30 μM)” value in experiment [4] is “Active”.

`COc1cc(-c2ccccc2)cc2nc(-c3cccc(N4CCN(C(C)C)CC4)n3)[nH]c(=O)c12` [Example 25, 2-(6-(4-Isopropylpiperazin-1-yl)pyridin-2-yl)-5-methoxy-7-phenylquinazolin-4(3H)-one]: the “IL-6 activity (IC50 < 30 μM)” value in experiment [2] is given as “Not Active”. For the same compound, the “FRET activity (IC50 < 30 μM)” value in experiment [4] is given as “Active”.

With `COc1ccc(OCc2ccccc2)c2nc(-c3cccc(N4CCN(C(C)C)CC4)c3)[nH]c(=O)c12` [Example 26, 8-(Benzyloxy)-2-(3-(4-isopropylpiperazin-1-yl)phenyl)-5-methoxyquinazolin-4(3H)-one], the “c-myc activity (IC50 < 30 μM)” value in experiment [1] is “Not Active”. In addition, the “IL-6 activity (IC50 < 30 μM)” value in experiment [2] was “Not Active”. Moreover, the “cell proliferation activity” value in experiment [3] was “Not Active”. Further, the “FRET activity (IC50 < 30 μM)” value in experiment [4] is reported as “Active”.

As to `COc1cc(OC)c2c(=O)[nH]c(-c3cccc(N4CCN(C(=O)NC(C)C)CC4)n3)nc2c1` [Example 27, 4-(6-(5,7-Dimethoxy-4-oxo-3,4-dihydroquinazolin-2-yl)pyridin-2-yl)-N-isopropylpiperazine-1-carboxamide Hydrochloride], in experiment [1], the “c-myc activity (IC50 < 30 μM)” value is reported as “Active”. Moreover, the “IL-6 activity (IC50 < 30 μM)” value in experiment [2] is “Active”. Also, in experiment [3], the “cell proliferation activity” value was “Active”. Besides, the “FRET activity (IC50 < 30 μM)” value in experiment [4] was “Active”.

For the compound `COc1cc(OC)c2c(=O)[nH]c(-c3cccc(N4CCN(C(C)C)CC4=O)n3)nc2c1` [Example 28, 2-(6-(4-Isopropyl-2-oxopiperazin-1-yl)pyridin-2-yl)-5,7-dimethoxyquinazolin-4(3H)-one Hydrochloride], the “ApoA-1 activity (EC170 < 30 μM)” value in experiment [5] was “Not Active”. The “FRET activity (IC50 < 30 μM)” value in experiment [4] was “Not Active”.

Take `COc1cc(OC)c2c(=O)[nH]c(-c3cccc(N4CCN(C)C(=O)C4)n3)nc2c1` [Example 30, 5,7-Dimethoxy-2-(6-(4-methyl-3-oxopiperazin-1-yl)pyridin-2-yl)quinazolin-4(3H)-one]: in experiment [1], the “c-myc activity (IC50 < 30 μM)” value is “Not Active”. Also, the “IL-6 activity (IC50 < 30 μM)” value in experiment [2] is “Active”. In addition, the “cell proliferation activity” value in experiment [3] is reported as “Not Active”. Besides, in experiment [4], the “FRET activity (IC50 < 30 μM)” value was “Not Active”.
